Results on three compounds are retold here after paper PMC5601071 (Frontiers in Pharmacology, 2017).

Data set [1] addresses T1, TREK-1 channel (hTREK-1/HEK cells) (Homo sapiens, UniProt O95069).
T1 construct: expressed in transfected cells
T1 sequence (O95069 1-426): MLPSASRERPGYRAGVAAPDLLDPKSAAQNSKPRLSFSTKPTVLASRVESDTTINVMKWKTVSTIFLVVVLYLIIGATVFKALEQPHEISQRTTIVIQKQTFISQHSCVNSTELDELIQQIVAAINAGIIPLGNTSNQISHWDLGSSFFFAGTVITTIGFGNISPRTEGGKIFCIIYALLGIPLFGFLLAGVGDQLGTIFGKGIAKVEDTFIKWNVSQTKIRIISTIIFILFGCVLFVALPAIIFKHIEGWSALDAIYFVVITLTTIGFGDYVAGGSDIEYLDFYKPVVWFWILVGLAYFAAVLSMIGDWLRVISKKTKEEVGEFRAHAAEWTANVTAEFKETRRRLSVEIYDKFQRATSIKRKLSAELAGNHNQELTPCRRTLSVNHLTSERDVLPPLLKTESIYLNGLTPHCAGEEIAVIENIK
The conditions noted are these: ref Mazella et al., 2010, Moha ou Maati et al., 2011, cited from earlier work. The source says:
Depression is a devastating mental disorder that affects 20% of the population worldwide. Despite their proven efficacy, antidepressants present a delayed onset of action and serious adverse effects. Seven years ago, we described spadin (PE 12-28) as a promising endogenous peptide with antidepressant activity. Spadin specifically blocks the TREK-1 channel. […] In order to improve in vivo spadin stability and bioavailability, we screened spadin analogs and derivatives. From the study of spadin blood deg ... || Depression is one of the most common mood disorders that represents a heavy economic burden in industrialized countries (Smith, [2014]). Severe depression affects 2–5% of US citizens and up to 20% of the population suffer from mild depression (Nestler et al., [2002]; Maletic et al., [2007]; Krishnan and Nestler, [2008]; Kessler et al., [2012]). Depression is a complex syndrome with a variety of causes mostly genetic and environmental (Nestler et al., [2002]).

The target of data set [2] is T1, TREK-1 channel (hTREK-1/HEK cells). In words: TREK-1 current inhibition, whole-cell patch-clamp on hTREK-1/HEK cell line. Format: cell-based. Conditions: hTREK-1/HEK cells. Here is the method: The human TREK-1/HEK cell line (Moha ou Maati et al., [2011]) and the native HEK293 cell line were maintained in Dulbecco's Modified Eagle's Medium (DMEM) supplemented with 10% (v/v) heat-inactivated fetal bovine serum, 1% (v/v) penicillin-streptomycin, 1% Glutamax. For the hTREK-1/HEK cells, 0.5 mg/ml G418 were added to the medium.
Cells were incubated in a humidified atmosphere containing 5% CO2. For electrophysiological measurements, cells were plated at a density of 20,000 cells per 35 mm dish.
Cells from the hTREK-1/HEK cell line were seeded at a density of 20,000 cells/35 mm dish. Electrophysiological recordings were performed 24–48 h after plating using the whole-cell configuration of patch-clamp technique. TREK-1 currents (ITREK−1) were recorded using RK400 patch-clamp amplifier (Axon Instrument, USA). They were low-pass filtered at 3 kHz and digitized at 10 kHz using a 12-bit analog-to-digital converter digidata (1322 series, Axon Instrument, USA). ITREK−1amplitudes were expressed as current densities [current amplitude (pA)/membrane capacitance (pF)]. The results were expressed as mean ± SEM (standard error of the mean).
Cells were continuously perfused using an external bath solution containing in mM: 150 NaCl, 5 KCl, 3 MgCl2, 1 CaCl2, and 10 HEPES. The bath solution was initially adjusted to pH 7.4 with NaOH. The intra-pipette solution contained in mM: 155 KCl, 3 MgCl2, 5 EGTA, and 10 HEPES adjusted to pH 7.2 with KOH. In order to measure ITREK−1, a cocktail of potassium channel blockers was added to the bath solution. This cocktail contained: 3 mM 4-AP (4-aminopyridine), 10 mM TEA (tetraethylammonium), 10 μM Glibenclamide, 100 nM Apamin, and 50 nM Charybdotoxin. Data acquisition was carried out using a computer (Dell Pentium) with pClamp software (Axon Instrument, USA). Whole-cell currents were generated by running a pulse or ramp protocol every 5 s from −100 to +60 mV with a holding potential maintained at −80 mV. To evaluate the inhibitory effect on TREK-1 channels of shortened spadin analogs compared with spadin, cells were first activated by 10 μM arachidonic acid (AA). Dose-response curves were realized to compare spadin-analog effects with spadin using Origin 8.6 (Northampton, MA, USA).
Patch-clamp recording data were analyzed using Clampfit (Molecular Devices, USA). I = f(V) curves were obtained from −100 to +60 mV ramp. Data were presented as mean ± SEM.
In general terms: The patch-clamp technique gives a direct electrical read-out from membranes.

The nature of data set [3]: In vitro degradation / half-life time in serum. Format: in vitro ADME, mouse. Conditions: mouse serum, 30 min, 37°C (method b20: 10 nmoles in 200 μl serum, room temperature); HPLC. Here is the method:
[…] Incubations were stopped by direct acidification (5 μl of 2.5 M HCl), loaded in C-18 sepack cartridges, lyophilized, resuspended in 20% acetonitrile before loading onto HPLC for analysis of PE degradation/stability. Elutions of HPLC products were carried out by means of a 50-min linear gradient of acetonitrile from 20 to 70% at a flow rate of 1 ml/min. The amount of the intact PE for each incubation time was expressed as the percent of the initial amount of spadin.

A further data set in a line: mouse serum. The conditions noted are these: 37°C (Figure 1 legend), room temperature, up to 60 min.

Like-named read-outs stand apart in the source and are kept apart here. Residues, ends and D or L forms follow the SMILES beside them.

For orientation: IC50 means the concentration that inhibits the measured activity by half. For orientation: inhibition means the percentage by which the read-out fell short of the control.

As to `CC[C@H](C)[C@H](NC(=O)[C@@H]1CCCN1C(=O)CNC(=O)[C@H](CO)NC(=O)[C@H](Cc1c[nH]c2ccccc12)NC(=O)[C@H](CCCNC(=N)N)NC(=O)[C@@H]1CCCN1C(=O)[C@H](CC(C)C)NC(=O)[C@@H]1CCCN1C(=O)[C@H](C)N)C(=O)NCC(=O)N[C@H](C(=O)N[C@@H](CO)C(=O)N[C@@H](Cc1c[nH]c2ccccc12)C(=O)NCC(=O)N[C@@H](CC(C)C)C(=O)N[C@@H](CCCNC(=N)N)C(=O)O)C(C)C` [PE 12-28 (Spadin), reference compound] (H-APLPRWSGPIGVSWGLR-OH), the IC50 is 40 to 60 nM in data set [1] (Moha Ou Maati et al., 2012, read-out: IC50 for TREK-1 block (spadin)) and 40 nM in data set [2] (dose-response curves at 0 mV, activated by 10 μM AA). The inhibition at 0.1 µM in data set [2] (HEK293, peptide 100 nM, TREK-1 first activated with 10 μM arachidonic acid (AA), current density at 0 mV, mean ± SEM, n = cells, read-out: % of TREK-1 inhibition) amounted to 44.4 ± 8.82%. Besides, in data set [3], the “spadin remaining after incubation with serum” value was “disappearance of almost all spadin”.
With `CNCCC(Oc1ccc(C(F)(F)F)cc1)c1ccccc1` (stereo not drawn) [fluoxetine], in data set [1] (read-out: IC50 for TREK-1 block (fluoxetine)), the IC50 was ~6000 nM.
Regarding APLPRWSGPIGVSWGLR, in the data set “mouse serum”, the fragment found entry is reported as “PE 12-27”.
